Results taken from patent publication US20250290032A1, “DEVICE AND METHODS FOR ENGINEERING AND MEASURING FLATTENED 3D CELL CULTURES” (The Trustees of Indiana University, priority 2022, published 2025).

Columns and labels:
[1] = test system: flattened spinal cord organoids (fSCOs); experiment: MEA mean firing rate of flattened spinal cord organoids after capsaicin and short-term DAMGO; type: cell-based, human
Protocol: (§1) After 10 days of growing, the flattened organoids as developed in accordance with the present disclosure were put into contact with bottom electrodes for measuring electrical and neuron activity. Recording of the spinal cord organoids' electrical activity was performed by using the Axion Mestro Edge (Axion inc). The spinal cord organoids were kept at 37° C. maintained by an internal heater and infused with 5% CO2. To determine the mean firing rate of a spinal cord organoid, the 3-minute MEA recording was repeated 5 times. The final mean firing rate of the organoid was calculated as the average mean firing rate of the 3 most consistent recordings among the 5 recordings. To reduce the variation brought by adding substance, the medium was also refreshed before measuring mean firing rate baseline. The substance was first diluted into ScM IV at 2× of the desired concentration, then half of the medium was replaced with the 2× concentrated solution to reach the desired concentration.
Capsaicin, a transient receptor potential cation channel subfamily V member 1 (TRPV1) agonist, was applied to fSCOs to model pain responses. […] Next, capsaicin and different concentrations of DAMGO together to test the pain relief effects of different opioids doses. […] As the opioids doses increase, the fSCOs' firing rates decreased, and the organoids reached minimal firing rates when the concentration was higher than 1 μM.

[2] = test system: flattened spinal cord organoids (fSCOs); experiment: Chronic opioid induced hyperalgesia model: 8-day DAMGO administration, MEA mean firing rate response to capsaicin; type: cell-based, human
Protocol: as §1
The fSCOs of the present disclosure were exposed to prolonged opioid administration to test the tolerance of the organoids to opioid induced hyperalgesia. The fSCOs were treated with DAMGO (500 nM) for 8 days and their responses to pain modulators were tested every other day. […] Organoids treated together with DAMGO and Naloxone, a μ-opioid receptor antagonist, were also tested to determine whether the Naloxone could reduce the opioid induced hyperalgesia.

μ-opioid receptor = target: T1, μ-opioid receptor (Homo sapiens, UniProt P35372); experiment: Immunofluorescence staining of μ-opioid receptor expression after prolonged administration; type: cell-based; details: prolonged DAMGO treatment group (500 nM, 8 days)
T1 construct: confirm that the presence of neuron populations that express μ-opioid receptors; endogenous in cells; host or cells: flattened spinal cord organoids (fSCOs) derived from WA09 cells
T1 sequence (P35372 whole entry): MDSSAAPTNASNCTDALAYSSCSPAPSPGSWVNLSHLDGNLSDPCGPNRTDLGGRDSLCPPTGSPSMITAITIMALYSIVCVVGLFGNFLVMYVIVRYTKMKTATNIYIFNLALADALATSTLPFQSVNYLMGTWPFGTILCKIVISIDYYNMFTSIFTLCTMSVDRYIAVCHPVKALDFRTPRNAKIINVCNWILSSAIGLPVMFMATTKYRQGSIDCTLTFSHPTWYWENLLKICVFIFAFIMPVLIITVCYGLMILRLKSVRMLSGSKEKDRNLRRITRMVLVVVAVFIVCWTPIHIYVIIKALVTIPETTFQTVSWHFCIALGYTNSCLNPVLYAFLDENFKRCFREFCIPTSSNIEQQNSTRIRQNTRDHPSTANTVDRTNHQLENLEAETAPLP
Protocol: To first validate that the flattened organoids could be utilized to model pain relief, first immunofluorescence staining was used to confirm that the presence of neuron populations that express μ-opioid receptors. Sectioned samples were placed onto charged glass slides and washed three times with 1×PBS. The samples were then treated with 3N hydrochloric acid (HCl) for 15 minutes for antigen retrieval. Following HCl treatment, the samples were washed again twice with 1×PBS and subjected to blocking (0.3% Triton-X100, 5% normal goat serum in 1×PBS) for 1 hour, followed by primary antibody incubation in a humidified chamber at 4° C. overnight. The samples were then washed 3 times with 1×PBS followed by secondary antibody incubation at room temperature for 1 hour before being washed and coverslipped with gold anti-fade mounting medium containing DAPI (Invitrogen).

| Structure (SMILES) | % change From Baseline in Mean Firing Rate (Hz) ([1]; Capsaicin + 100 nM DAMGO) | % change From Baseline in Mean Firing Rate (Hz) ([1]; Capsaicin + 500 nM DAMGO) | % change From Baseline in Mean Firing Rate (Hz) ([1]; Capsaicin + 1 uM DAMGO) | % change From Baseline in Mean Firing Rate (Hz) ([1]; Capsaicin + 10 uM DAMGO) | DAMGO concentration at which organoids reached minimal firing rates ([1]; capsaicin together with DAMGO) | firing rate of spinal cord organoids versus baseline ([1]; capsaicin together with minimal dose of DAMGO (100 nM)) | firing rate versus baseline after capsaicin plus low dose of DAMGO (100 nM) ([2]; after 8-day administration, Ctrl and DAMGO+Naloxone group) | DAMGO needed to eliminate pain activity and return to activity baseline ([2]; after 8-day administration, organoids in the DAMGO group (500 nM)) | mean firing rate increase after capsaicin treatment ([2]; day 6 of DAMGO (500 nM) treatment, control 48%) | mean firing rate increase after capsaicin treatment ([2]; day 8 of DAMGO (500 nM) treatment, control 39%) | mean firing rate increase after capsaicin treatment versus control group ([2]; first 4 days of DAMGO (500 nM) treatment) | μ-opioid receptor expression (μ-opioid receptor) | % change From Baseline in Mean Firing Rate (Hz) ([1]; Capsaicin) | increase of mean firing rate of organoids after stimulation by capsaicin ([1]; capsaicin alone, fSCOs, MEA) |
| --- | --- | --- | --- | --- | --- | --- | --- | --- | --- | --- | --- | --- | --- | --- |
| C[C@@H](NC(=O)[C@@H](N)Cc1ccc(O)cc1)C(=O)NCC(=O)N(C)[C@@H](Cc1ccccc1)C(=O)NCCO [DAMGO] | +0.3% | −0.2% | −0.42% | −0.4% | higher than 1 μM | dropped below baseline | reduce the firing rate below baseline | more than 1 μM | 73% | 93% | no significant difference | downregulated | – | – |
| COc1cc(CNC(=O)CCCC/C=C/C(C)C)ccc1O [Capsaicin] | – | – | – | – | – | – | – | – | – | – | – | – | −0.1% | 35.4% |
